Publication PMC12016938, “A small molecule PKCε inhibitor reduces hyperalgesia induced by paclitaxel or opioid withdrawal” (JCI Insight, 2025)
Values joined by “and” are separate entries in the source; they are usually repeats but may differ in a detail not shown here. Equal values may be shown once. Where a name gives a salt, the structure may show the parent alone.

System: self-administration (addictive potential)
Assay: I.v. self-administration of CP612, between-session progressive ratio and demand curve
Experimental: We tested the addictive potential of CP612 by examining the extent to which rats are willing to work to obtain CP612. Rats were initially trained to self-administer either saline, morphine (500 μg/kg/i.v. infusion), or 1 of 3 different doses of CP612 (75, 150, or 300 μg/kg/i.v. infusion) for 4 days at fixed ratio 1 (FR1, where 1 nose poke delivers 1 infusion).
During the second phase, the ratio to obtain an infusion increased geometrically every other day (FR1, FR3, FR6, FR12, FR24, FR48, and FR96).
Data (number of self-infusions) were also fitted in an economic-demand curve, which provides an estimate of the motivation to obtain drugs and their addictive potential ([20]). We measured elasticity (α), which is the relative change in consumption as a function of price (i.e., ratio of nose pokes required to obtain an infusion). Behavior is considered “inelastic” when consumption is insensitive to price and “elastic” when consumption is sensitive to price. We also measured Pmax, which is the price at which intake switches from inelastic to elastic. […] (Figure 8B).
Rats not immediately anesthetized were eliminated from the study.
Following this initial acquisition phase at FR1, the ratio to obtain the drug was increased geometrically every other day: FR3 (3 nose pokes are required to obtain 1 infusion of morphine), FR6, FR12, FR24, FR48, and FR96. This allows for analysis of drug consumption as a function of “price” using demand curves for behavioral economics, which can estimate the motivation to obtain drugs and their “addictive potential” ([20]). For this, data from each rat were fitted to the equation log Q = log Q0 + k (e ^–α(Q0 ^C) – 1), where Q represents consumption (number of self-infusions), and Q0 represents the level of consumption at the lowest price. C represents price for the drug (i.e., the ratio), and k is set to a constant accounting for the estimated range of consumption in logarithmic units (k = 4 in these studies). The symbol α is the relative change in consumption across changes in price (ratio). Behavior is considered “inelastic” when consumption is insensitive to price (i.e., the curve is flat, and consumption is maintained despite increases in price), and it switches to “elastic” when consumption is sensitive to price (i.e., when the curve is steep and consumption declines with increases in price). […] We also compared groups for their average intake in the consumption-price curves by measuring α (elasticity) and Pmax.

[1] = morphine, individual rats, column in the AH block

CN1CC[C@]23c4c5ccc(O)c4O[C@H]2[C@@H](O)C=C[C@H]3[C@H]1C5 [Morphine, Morphine sulfate, reference compound]
AVG Latency (FR3) (morphine, individual rats): 0.17 and 0.173 and 1.3 and 0.2 and 0.6 and 1.9
AVG Latency (FR6) (morphine, individual rats): 1.3 and 0.175 and 0.8 and 2.9 and 1.1 and 1.4
AVG Latency (FR12) (morphine, individual rats): 0.435 and 0.663 and 0.7 and 0.227 and 2.8 and 2.7
AVG Latency (FR24) (morphine, individual rats): 1.2 and 0.75 and 0.9 and 0.754 and 0.6 and 2.4
AVG Latency (FR48) (morphine, individual rats): 0.8 and 0.428 and 0.738 and 0.951 and 1.0
AVG Latency (FR96) (morphine, individual rats): 0.9 and 0.7 and 1.4 and 0.6 and 1.6
D1 AH (FR1) (morphine, individual rats): 15 and 13 and 16 and 19 and 12
D1 AH (FR3) (morphine, individual rats): 44 and 27 and 25 and 19 and 17 and 29
D1 AH (FR6) (morphine, individual rats): 38 and 54 and 48 and 37 and 30 and 17
D1 AH (FR12) (morphine, individual rats): 76 and 90 and 97 and 95 and 40 and 39
D1 AH (FR24) (morphine, individual rats): 167 and 144 and 79 and 198 and 125 and 58
D1 AH (FR48) (morphine, individual rats): 269 and 254 and 72 and 297 and 145 and 69
D1 AH (FR96) (morphine, individual rats): 243 and 334 and 76 and 204 and 237 and 36
D1 IH (FR1) (morphine, individual rats): 11 and 22 and 18 and 9 and 7
D1 IH (FR3) (morphine, individual rats): 16 and 9 and 5 and 2 and 13 and 11
D1 IH (FR6) (morphine, individual rats): 3 and 5 and 7 and 18 and 10
D1 IH (FR12) (morphine, individual rats): 10 and 5 and 16 and 3 and 7
D1 IH (FR24) (morphine, individual rats): 14 and 6 and 19 and 5 and 10
D1 IH (FR48) (morphine, individual rats): 8 and 18 and 11 and 9 and 7 and 12
D1 IH (FR96) (morphine, individual rats): 9 and 26 and 16 and 12 and 28
D1 Inf (FR1) (morphine, individual rats): 9 and 8 and 12 and 10
D1 Inf (FR3) (morphine, individual rats): 11 and 8 and 5 and 4
D1 Inf (FR6) (morphine, individual rats): 6 and 7 and 4 and 2
D1 Inf (FR12) (morphine, individual rats): 6 and 7 and 3
D1 Inf (FR24) (morphine, individual rats): 6 and 5 and 3 and 8 and 4 and 2
D1 Inf (FR48) (morphine, individual rats): 5 and 1 and 2
D1 Inf (FR96) (morphine, individual rats): 2 and 3 and 0
D1 Latency (FR1) (morphine, individual rats): 9.3 and 15.1 and 26.3 and 3.9 and 5.9 and 0.853
D1 Latency (FR3) (morphine, individual rats): 0.238 and 0.2 and 1.5 and 0.9 and 0.358
D1 Latency (FR6) (morphine, individual rats): 0.072 and 0.225 and 1.0 and 0.4 and 0.178 and 1.6
D1 Latency (FR12) (morphine, individual rats): 0.038 and 1.0 and 0.6 and 0.032 and 1.6 and 1.2
D1 Latency (FR24) (morphine, individual rats): 1.5 and 0.075 and 0.5 and 0.328 and 0.538 and 3.9
D1 Latency (FR48) (morphine, individual rats): 0.107 and 0.4 and 0.5 and 1.0 and 1.4 and 1.2
D1 Latency (FR96) (morphine, individual rats): 0.7 and 0.8 and 1.4 and 0.438 and 2.3
D2 AH (FR1) (morphine, individual rats): 16 and 10 and 8 and 18 and 17
D2 AH (FR3) (morphine, individual rats): 43 and 31 and 37 and 17 and 20 and 19
D2 AH (FR6) (morphine, individual rats): 49 and 53 and 43 and 40 and 32 and 25
D2 AH (FR12) (morphine, individual rats): 48 and 86 and 32 and 113 and 38 and 44
D2 AH (FR24) (morphine, individual rats): 162 and 155 and 80 and 176 and 120 and 64
D2 AH (FR48) (morphine, individual rats): 196 and 251 and 75 and 213 and 125 and 57
D2 AH (FR96) (morphine, individual rats): 164 and 368 and 38 and 192 and 184 and 36
D2 IH (FR1) (morphine, individual rats): 9 and 4 and 12 and 6 and 11
D2 IH (FR3) (morphine, individual rats): 4 and 6 and 12 and 14 and 17 and 7
D2 IH (FR6) (morphine, individual rats): 10 and 9 and 13 and 8 and 12
D2 IH (FR12) (morphine, individual rats): 12 and 14 and 22 and 7 and 1
D2 IH (FR24) (morphine, individual rats): 8 and 14 and 11 and 10 and 7
D2 IH (FR48) (morphine, individual rats): 9 and 13 and 27 and 12 and 14
D2 IH (FR96) (morphine, individual rats): 8 and 11 and 15 and 13 and 24
D2 Inf (FR1) (morphine, individual rats): 11 and 9 and 7 and 10 and 12
D2 Inf (FR3) (morphine, individual rats): 10 and 9 and 11 and 5
D2 Inf (FR6) (morphine, individual rats): 8 and 7 and 6 and 4
D2 Inf (FR12) (morphine, individual rats): 4 and 6 and 2 and 9 and 3
D2 Inf (FR24) (morphine, individual rats): 6 and 3 and 7 and 4 and 2
D2 Inf (FR48) (morphine, individual rats): 4 and 5 and 1 and 2
D2 Inf (FR96) (morphine, individual rats): 1 and 3 and 0
D2 Latency (FR1) (morphine, individual rats): 0.152 and 0.662 and 1.3 and 0.455 and 0.133 and 2.0
D2 Latency (FR3) (morphine, individual rats): 0.1 and 0.137 and 1.1 and 0.19 and 0.327 and 3.5
D2 Latency (FR6) (morphine, individual rats): 2.5 and 0.125 and 0.7 and 5.3 and 1.9 and 1.1
D2 Latency (FR12) (morphine, individual rats): 0.8 and 0.372 and 0.7 and 0.422 and 4.1
D2 Latency (FR24) (morphine, individual rats): 0.9 and 1.4 and 1.3 and 1.2 and 0.7 and 0.8
D2 Latency (FR48) (morphine, individual rats): 1.4 and 0.457 and 1.0 and 0.9 and 0.543 and 0.367
D2 Latency (FR96) (morphine, individual rats): 1.1 and 0.555 and 1.4 and 0.748 and 0.66 and 1.0
D3 AH (FR1) (morphine, individual rats): 24 and 13 and 8 and 20 and 17
D3 IH (FR1) (morphine, individual rats): 18 and 4 and 15 and 3 and 20 and 8
D3 Inf (FR1) (morphine, individual rats): 10 and 7 and 14
D3 Latency (FR1) (morphine, individual rats): 0.3 and 0.137 and 7.8 and 0.352 and 0.9 and 0.327
D4 AH (FR1) (morphine, individual rats): 23 and 12 and 13 and 17 and 15
D4 IH (FR1) (morphine, individual rats): 3 and 5 and 8 and 6 and 9
D4 Inf (FR1) (morphine, individual rats): 13 and 10 and 11 and 9 and 8
D4 Latency (FR1) (morphine, individual rats): 0.06 and 0.143 and 4.0 and 0.342 and 1.1
last AH (FR1) (morphine, individual rats): 21 and 12 and 18 and 22 and 14 and 10
last IH (FR1) (morphine, individual rats): 4 and 1 and 3 and 7 and 9
last Inf (FR1) (morphine, individual rats): 15 and 10 and 12 and 17 and 9 and 7
last Latency (FR1) (morphine, individual rats): 0.5 and 0.7 and 2.0 and 0.017 and 0.4 and 1.1
last-1 AH (FR1) (morphine, individual rats): 23 and 12 and 13 and 17 and 15
last-1 IH (FR1) (morphine, individual rats): 3 and 5 and 8 and 6 and 9
last-1 Inf (FR1) (morphine, individual rats): 13 and 10 and 11 and 9 and 8
last-1 Latency (FR1) (morphine, individual rats): 0.06 and 0.143 and 4.0 and 0.342 and 1.1
last-2 AH (FR1) (morphine, individual rats): 24 and 13 and 8 and 20 and 17
last-2 IH (FR1) (morphine, individual rats): 18 and 4 and 15 and 3 and 20 and 8
last-2 Inf (FR1) (morphine, individual rats): 10 and 7 and 14
last-2 Latency (FR1) (morphine, individual rats): 0.3 and 0.137 and 7.8 and 0.352 and 0.9 and 0.327
last-3 AH (FR1) (morphine, individual rats): 24 and 13 and 8 and 18 and 10 and 17
last-3 IH (FR1) (morphine, individual rats): 18 and 4 and 12 and 6 and 11
last-3 Inf (FR1) (morphine, individual rats): 10 and 7 and 11 and 12
last-3 Latency (FR1) (morphine, individual rats): 0.3 and 0.137 and 1.3 and 0.455 and 0.133 and 2.0
AVG Inf (FR1_D1 to D4) [1]: 19.5 and 12.0 and 11.0 and 16.8 and 14.8 and 15.3
AVG Inf (FR1_Last 2 FR1 days) [1]: 22.0 and 12.0 and 15.5 and 17.5 and 12.5
AVG Inf (FR1_Last 4 FR1 days) [1]: 23.0 and 12.5 and 11.8 and 18.3 and 13.5 and 14.8
AVG AH (FR3) (per-rat average): 24.0 and 20.5 and 23.0
AVG AH (FR6) (per-rat average): 55.0 and 42.0 and 46.5
AVG AH (FR12) (per-rat average): 107.5 and 82.0 and 88.0
AVG AH (FR24) (per-rat average): 143.0 and 145.0 and 172.0
AVG AH (FR48) (per-rat average): 138.0 and 149.0 and 142.5
AVG AH (FR96) (per-rat average): 116.5 and 141.0 and 156.0
AVG IH (FR1_Last 2 FR1 days) (per-rat average): 1.5 and 3.0
AVG IH (FR6) (per-rat average): 4.5 and 8.5 and 7.5
AVG IH (FR48) (per-rat average): 16.0 and 12.0 and 23.5
AVG Inf (FR1_D1 to D4) (per-rat average): 6.0 and 7.3 and 9.3
AVG Inf (FR1_Last 2 FR1 days) (per-rat average): 6.5 and 7.5
AVG Inf (FR1_Last 4 FR1 days) (per-rat average): 6.0 and 7.0 and 8.3
AVG Inf (FR3) (per-rat average): 7.5 and 5.5 and 7.0
AVG Inf (FR6) (per-rat average): 8.0 and 6.5 and 7.0
AVG Inf (FR12) (per-rat average): 8.5 and 5.5 and 6.5
AVG Inf (FR24) (per-rat average): 5.0 and 5.5 and 6.5
AVG Inf (FR48) (per-rat average): 2.5
AVG Inf (FR96) (per-rat average): 1.0
AVG Latency (FR1_D1 to D4) (per-rat average): 0.7 and 1.3 and 0.8
AVG Latency (FR3) (per-rat average): 0.3 and 0.6 and 0.339
AVG Latency (FR96) (per-rat average): 0.8 and 0.7 and 0.9
